Measured values: patent US4965280A, “Antifungal carbinols” (E. I. Du Pont de Nemours and Company, priority 1989, dated 1990)
Values after ≈ are worked out from the molar mass of the structure shown. Read-outs that look alike come from different tables or passages of the source.

Key:
[1] = test system: Pythium aphanadermatum; test: Example J cucumber damping off; type: in vivo; conditions: Pythium, 336 h; 5 kg/ha; read-out: disease control rating, Ex. J
Procedure: […] Seeds and soil were then inoculated with a mixture of sand, cereal and mycelium of the fungus Pythium aphanadermatum, causal agent of cucumber damping off, and incubated in a growth chamber at 30° C. for 14 days. Disease ratings were then made.

[2] = test system: Aspergillus fumigatus ATCC 28214; test: In vitro antifungal MIC, microtiter broth dilution; conditions: Aspergillus fumigatus, ATCC28214, 24 h, read-out: MIC values, A. fumigatus, 30°, 24 hours
[3] = test system: Pyricularia oryzae; test: whole plant or invertebrate; type: in vivo; conditions: Pyricularia oryzae, 120 h, read-out: disease control rating, Ex. E, 100 PPM
[4] = test system: Rhizoctonia solani; test: Example F rice sheath blight; type: in vivo; conditions: Rhizoctonia solani, 144 h, 100 PPM; read-out: disease control rating, Ex. F
Procedure, shortened: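 Application rates were 100 or 20 ppm, delivered as a foliar spray to the point of run-off on rice seedlings. The formulation used 6% acetone in water with 250 ppm surfactant.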

[5] = test system: Rhizoctonia solani; test: Example K cotton blight; type: in vivo; conditions: 336 h, 5 kg/ha, read-out: disease control rating, Ex. K
Procedure: […] Seeds and soil were then inoculated with a mixture of sand, cereal and mycelium of the fungus Rhizoctonia solani, causal agent of cotton blight, and incubated in a growth chamber at 30° C. for 14 days. Disease ratings were then made.

[6] = test system: Phytophthora infestans; test: whole plant or invertebrate; type: in vivo; conditions: Phytophthora infestans, in Solanum lycopersicum, read-out: disease control rating, Ex. H, 100 PPM
[7] = test system: Puccinia recondita; test: Example G wheat leaf rust; type: in vivo; conditions: 100 PPM, read-out: disease control rating, Ex. G
[8] = test system: Erysiphe graminis f. sp. tritici; test: Example D wheat powdery mildew; type: in vivo; conditions: Blumeria graminis, 144 h; 100 PPM; read-out: disease control rating, Ex. D
Procedure, shortened: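 First, compound taken up in acetone, 6% of the end volume. Next, suspended in water with 250 ppm polyhydric alcohol esters at 100 or 20 ppm. Last, applied to wheat seedlings until run-off.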

[9] = test system: Cercosporidium personatum; test: Example B Peanut Late Leafspot; type: in vivo; conditions: Nothopassalora personata; 100 PPM; read-out: disease control rating, Ex. B
Procedure, shortened: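 Dose 100 or 20 ppm; vehicle acetone 6% v/v final in water + 250 ppm surfactant; applied by spraying peanut seedlings to run-off.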

[10] = test system: Venturia inaequalis; test: Example A apple scab; type: in vivo; conditions: 100 PPM, read-out: disease control rating, Ex. A
Procedure, shortened: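 First, compounds are taken up in acetone amounting to 6% of the final volume. Next, they are suspended in purified water with 250 ppm TREM 014 at 100 or 20 ppm. Finally, seedlings of apple are sprayed until run-off.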

[11] = test system: Plasmorpara viticola; test: Example I grape downy mildew; type: in vivo; conditions: read-out: disease control rating, Ex. I
Procedure, shortened: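 Applied as a foliar spray to run-off on grape seedlings, the compounds were formulated at 100 or 20 ppm in water containing 250 ppm TREM 014, with acetone making up 6% of the volume.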

[12] = test system: Candida albicans ATCC 11651; test: In vivo systemic Candida infection in mice, primary assay; parameters: species or system Candida albicans; CF-1 female mice; conditions: Candida albicans, 150 mg/kg per day, read-out: % Survival
Procedure, shortened: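 CF-1 female mice (20 g, 10 per group) were infected IV with 0.2 ml of 1×10^7/ml C. albicans ATCC 11651, then given test compound subcutaneously at 50 or 150 mg/kg/day at 1 and 6 h post-infection and once daily for three more days. Survival was followed for 21 days against infected untreated mice; ≥70% protection at 14 days was scored active.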

[13] = test system: Candida albicans ATCC 11651; test: In vitro antifungal MIC, microtiter broth dilution; conditions: Candida albicans, ATCC11651, 24 h, read-out: MIC values, C. albicans, 30°, 24 hours
[14] = test system: Botrytis cinerea; test: Example C bean grey mold; type: in vivo; conditions: Botrytis cinerea, 24 h, 100 PPM; read-out: disease control rating, Ex. C
Procedure, shortened: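 At 20 or 100 ppm, each compound was applied as an aqueous suspension (acetone 6% final; TREM 014 250 ppm) sprayed onto young broad bean plants to the point of run-off.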

[15] = test system: Sclerotium rolfsii; test: Example M southern blight; type: in vivo; conditions: Agroathelia rolfsii, 336 h; 5 kg/ha; read-out: disease control rating, Ex. M
Procedure: […] Seeds and soil were then inoculated with a mixture of sand, cereal and mycelium of the fungus Sclerotium rolfsii, causal agent of sourthern blight, and incubated in a growth chamber at 30° C. for 14 days. Disease ratings were then made.

Structure (SMILES)	pest or weed control at 5000 g/ha [1] [%]	MIC [2] [µg/mL]	pest or weed control at 100 ppm [3] [%]	pest or weed control at 100 ppm [4] [%]	pest or weed control at 5000 g/ha [5] [%]	pest or weed control at 100 ppm [6] [%]	pest or weed control at 100 ppm [7] [%]	pest or weed control at 100 ppm [8] [%]	pest or weed control at 100 ppm [9] [%]	pest or weed control at 100 ppm [10] [%]	pest or weed control at 100 ppm [11] [%]	responders at 150 mg/kg ([12]; ATCC11651, 168 h, day 7) [%]	responders at 150 mg/kg ([12]; ATCC11651, 336 h, day 14) [%]	responders at 150 mg/kg ([12]; ATCC11651, 504 h, day 21) [%]	MIC [13] [µg/mL]	pest or weed control at 100 ppm [14] [%]	pest or weed control at 5000 g/ha [15] [%]
C=C(c1ccc(F)cc1)C(O)(Cn1cncn1)c1ccc(Cl)cc1 (stereo not drawn) [Example 3]	0	50 (≈ 145 µM)	5	93	0	0	100	93	100	100	0	100	100	60	≤ 0.4	93	
C=C(c1ccc(F)cc1)C(O)(CCCC)Cn1cncn1 (stereo not drawn) [Example 6]	0	25 (≈ 86.4 µM)	0	0	0	23	96	98	82	0	0	50	10	0	1.6 (≈ 5.53 µM)	84	0
C=C(c1ccc(Cl)cc1)C(O)(Cn1cncn1)c1ccc(F)cc1 (stereo not drawn) [Example 25]	0	25 (≈ 72.7 µM)	31	48		0	97	91	100	100	0	100	100	50	1.6 (≈ 4.65 µM)	96	35
C=C(c1ccccc1Cl)C(O)(Cn1cncn1)c1ccc(F)cc1 (stereo not drawn) [Example 32]	0	1.6 (≈ 4.65 µM)	97	33	0	0	100	95	100	100	98	100	90	50	≤ 0.4	98	
C=C(c1ccc(F)cc1F)C(O)(Cn1cncn1)c1ccc(F)cc1 (stereo not drawn) [Example 94, 2-(4-Fluorophenyl)-3-(2,4-difluorophenyl)-1-(1H-1,2,4-triazol-1-yl)-3-buten-2-ol]	0	50 (≈ 145 µM)	78	36	0	0	100	98	61	86	0	100	40	10	0.4 (≈ 1.16 µM)	96	
C=C(c1ccc(Cl)cc1Cl)C(O)(Cn1cncn1)c1ccc(F)cc1 (stereo not drawn) [Example 99]	0	6.3 (≈ 16.7 µM)	98	61	0	0	100	83	100	100	83	100	100	40	0.05 (≈ 0.132 µM)	89	
C=C(c1ccccc1)C(O)(Cn1cncn1)c1ccccc1 (stereo not drawn) [Example 608]	0	6.3 (≈ 21.6 µM)	4	81	0	0	100	98	100	87	0	100	70	20	0.4 (≈ 1.37 µM)	98	
C=C(c1ccc(Cl)cc1)C(O)(Cn1cncn1)c1ccccc1Cl (stereo not drawn) [Example 671]	0	0.2 (≈ 0.555 µM)	84	100		0	100	94	100	100	84	100	100	60	0.03 (≈ 0.0833 µM)	92	0
C=C(c1ccccc1C(F)(F)F)C(O)(Cn1cncn1)c1ccc(F)cc1 (stereo not drawn) [Example 724]	0	0.4 (≈ 1.06 µM)	63	100		0	100	100	100	100	0	100	90	40	0.4 (≈ 1.06 µM)	95	
